Assay: xn = mol fraction of the nth substance listed

CCCCCCCCCCCCCC + CCCCCO
viscosity [mPa·s], 101.33 kPa
Settings | x1 = 0.0999 | x1 = 0.2002 | x1 = 0.3001 | x1 = 0.3987 | x1 = 0.5009 | x1 = 0.6004 | x1 = 0.6996 | x1 = 0.8014 | x1 = 0.9002
293.15 K | 3.262 | 2.941 | 2.698 | 2.52 | 2.396 | 2.31 | 2.26 | 2.234 | 2.243
303.15 K | 2.499 | 2.274 | 2.103 | 1.982 | 1.896 | 1.845 | 1.82 | 1.817 | 1.829
313.15 K | 1.963 | 1.797 | 1.674 | 1.588 | 1.531 | 1.5 | 1.491 | 1.501 | 1.519
323.15 K | 1.556 | 1.441 | 1.353 | 1.297 | 1.259 | 1.241 | 1.246 | 1.262 | 1.285

O=[N+]([O-])c1ccccc1 + CCCCCO
293.15 K, 101.33 kPa
Settings | viscosity [mPa·s]
x2 = 0.0258 | 1.964
x2 = 0.0556 | 1.924
x2 = 0.104 | 1.867
x2 = 0.18 | 1.856
x2 = 0.204 | 1.86
x2 = 0.2635 | 1.899
x2 = 0.2976 | 1.918
x2 = 0.3319 | 1.938
x2 = 0.3827 | 2.003
x2 = 0.4677 | 2.104
x2 = 0.6694 | 2.475
x2 = 0.8217 | 2.982

CC=Cc1ccc(O)c(OC)c1 + CCCCCOC(C)=O
298.15 K, 101 kPa
Settings | viscosity [mPa·s]
x1 = 0.062 | 0.92
x1 = 0.119 | 1.06

CC(C)CCl + CCCCO
viscosity [mPa·s], 101.33 kPa
Settings | x1 = 0.1061 | x1 = 0.207 | x1 = 0.3058 | x1 = 0.4036 | x1 = 0.4999 | x1 = 0.6059 | x1 = 0.7007 | x1 = 0.7972 | x1 = 0.8971
298.15 K | 1.981 | 1.554 | 1.233 | 0.9932 | 0.8229 | 0.6801 | 0.5857 | 0.515 | 0.4612
313.15 K | 1.395 | 1.121 | 0.9144 | 0.7548 | 0.6405 | 0.5441 | 0.4768 | 0.4261 | 0.3888

From the CheMixHub viscosity set
